Experimental data taken from ChEMBL document CHEMBL5584323, “Peptide-Mediated Small Molecule Lysosome-Targeting Chimeras for Targeted Degradation of Membrane and Intracellular Proteins” (J Med Chem, 2024).
Active and inactive are the calls of the source. No cut-off for these calls is given here. Starred links: 1 amine or outer side, 2 acyl side, 3 side chain; linkers in the order of their positions; H or OH if unused. Non-standard residues stand in square brackets, D forms with d. Residues, ends and D or L forms follow the SMILES beside them. *: point of attachment. X5 = Nc1ncnc2c1c(-c1ccc(Oc3ccccc3)cc1)nn2[C@@H]1CCCN(C(=O)/C=C/CN2CCN(CCOCCOCCC(=O)*)CC2)C1; X4 = COc1nc(OCc2cccc(-c3ccccc3)c2C)ccc1CNCCNC(=O)CCCc1cn(CC(=O)*)nn1; X1 = Cc1ccc(-n2nc3c(=O)n(CCCC(=O)*)nc(C)c3c2C)cc1; X2 = O=S(=O)(c1ccc(NC(=S)NCc2cccnc2)cc1)*; X3 = O=C(CCCCCCCN1CCN([*:1])CC1)[*:2]; Aoc = NCCCCCCCC(=O)O

Key:
MIA PaCa-2 [1] = test: Effect on total Erk in human MIA PaCa-2 cells at 0.1 to 5 uM incubated for 48 hrs by Western blot analysis; assay type: functional, cell-based; conditions: dose 0.1-5 µM
[2] = molecular target: T1, Retinal rod rhodopsin-sensitive cGMP 3',5'-cyclic phosphodiesterase subunit delta (Homo sapiens, UniProt O43924); test: Peptide-mediated small molecule lysosome-targeting chimeric activity based PDE-delta degradation in human MIA PaCa-2 cells assessed as reduction in Akt phosphorylation at S473 at 2 uM incubated for 48 hrs by Western blot analysis; assay type: cell-based
MIA PaCa-2 [3] = test: Antiproliferative activity against human MIA PaCa-2 cells incubated for 72 hrs by CKK8 assay; assay type: functional, cell-based; conditions: MIA PaCa-2, 72 h
[4] = Stability of compound in PBS buffer incubated for 48 hrs by HPLC analysis; assay type: physicochemical
[5] = Metabolic stability in rat liver microsomes assessed as half life; assay type: ADME, Microsome
MIA PaCa-2 [6] = test: Induction of apoptosis in human MIA PaCa-2 cells assessed as late apoptotic cells at 10 uM incubated for 48 hrs by Annexin V-FITC/PI staining based flow cytometry (reference value: 2.90 %); assay type: functional
MIA PaCa-2 [7] = test: Induction of apoptosis in human MIA PaCa-2 cells assessed as late apoptotic cells at 5 uM incubated for 48 hrs by Annexin V-FITC/PI staining based flow cytometry (reference value: 2.90 %); assay type: functional
[8] = molecular target: T1, Retinal rod rhodopsin-sensitive cGMP 3',5'-cyclic phosphodiesterase subunit delta; test: Peptide-mediated small molecule lysosome-targeting chimeric activity based PDE-delta degradation in human MIA PaCa-2 cells at 5 uM incubated for 48 hrs by Western blot analysis relative to control; assay type: cell-based
[9] = molecular target: T1, Retinal rod rhodopsin-sensitive cGMP 3',5'-cyclic phosphodiesterase subunit delta; test: Peptide-mediated small molecule lysosome-targeting chimeric activity based PDE-delta degradation in Baf-A1-treated human MIA PaCa-2 cells at 0.5 to 1 uM incubated for 48 hrs by Western blot analysis; assay type: cell-based; conditions: dose 0.5-1 µM
MIA PaCa-2 [10] = test: Induction of apoptosis in human MIA PaCa-2 cells assessed as viable cells at 20 uM incubated for 48 hrs by Annexin V-FITC/PI staining based flow cytometry (reference value: 92.1 %); assay type: functional; conditions: read-out: Activity
[11] = molecular target: T1, Retinal rod rhodopsin-sensitive cGMP 3',5'-cyclic phosphodiesterase subunit delta; test: Peptide-mediated small molecule lysosome-targeting chimeric activity based PDE-delta degradation in human MIA PaCa-2 cells assessed as increase in lysosome-related organelles at 1 uM incubated for 48 hrs by TEM analysis; assay type: cell-based
MIA PaCa-2 [12] = test: Induction of apoptosis in human MIA PaCa-2 cells assessed as early apoptotic cells at 20 uM incubated for 48 hrs by Annexin V-FITC/PI staining based flow cytometry (reference value: 4.45 %); assay type: functional
MIA PaCa-2 [13] = test: Induction of apoptosis in human MIA PaCa-2 cells assessed as necrotic cells at 5 uM incubated for 48 hrs by Annexin V-FITC/PI staining based flow cytometry (reference value: 0.55 %); assay type: functional
MIA PaCa-2 [14] = test: Effect on total Akt in human MIA PaCa-2 cells at 0.1 to 5 uM incubated for 48 hrs by Western blot analysis; assay type: functional, cell-based; conditions: dose 0.1-5 µM
[15] = molecular target: T1, Retinal rod rhodopsin-sensitive cGMP 3',5'-cyclic phosphodiesterase subunit delta; test: Peptide-mediated small molecule lysosome-targeting chimeric activity based PDE-delta degradation in human MIA PaCa-2 cells incubated for 48 hrs by Western blot analysis; assay type: cell-based
MIA PaCa-2 [16] = test: Induction of apoptosis in human MIA PaCa-2 cells assessed as necrotic cells at 10 uM incubated for 48 hrs by Annexin V-FITC/PI staining based flow cytometry (reference value: 0.55 %); assay type: functional
MIA PaCa-2 [17] = test: Induction of apoptosis in human MIA PaCa-2 cells assessed as early apoptotic cells at 5 uM incubated for 48 hrs by Annexin V-FITC/PI staining based flow cytometry (reference value: 4.45 %); assay type: functional
MIA PaCa-2 [18] = test: Induction of apoptosis in human MIA PaCa-2 cells assessed as viable cells at 10 uM incubated for 48 hrs by Annexin V-FITC/PI staining based flow cytometry (reference value: 92.1 %); assay type: functional; conditions: read-out: Activity
[19] = molecular target: T1, Retinal rod rhodopsin-sensitive cGMP 3',5'-cyclic phosphodiesterase subunit delta; test: Peptide-mediated small molecule lysosome-targeting chimeric activity based PDE-delta degradation in human MIA PaCa-2 cells at 0.1 uM incubated for 48 hrs by Western blot analysis; assay type: cell-based
MIA PaCa-2 [20] = test: Induction of apoptosis in human MIA PaCa-2 cells assessed as early apoptotic cells at 10 uM incubated for 48 hrs by Annexin V-FITC/PI staining based flow cytometry (reference value: 4.45 %); assay type: functional
MIA PaCa-2 [21] = test: Induction of apoptosis in human MIA PaCa-2 cells assessed as necrotic cells at 20 uM incubated for 48 hrs by Annexin V-FITC/PI staining based flow cytometry (reference value: 0.55 %); assay type: functional
[22] = molecular target: T1, Retinal rod rhodopsin-sensitive cGMP 3',5'-cyclic phosphodiesterase subunit delta; test: Peptide-mediated small molecule lysosome-targeting chimeric activity based PDE-delta degradation in human MIA PaCa-2 cells assessed as reduction in Erk phosphorylation at Thr202/Tyr204 at 0.1 to 5 uM incubated for 48 hrs by Western blot analysis; assay type: cell-based; conditions: dose 0.1-5 µM
MIA PaCa-2 [23] = test: Induction of apoptosis in human MIA PaCa-2 cells assessed as late apoptotic cells at 20 uM incubated for 48 hrs by Annexin V-FITC/PI staining based flow cytometry (reference value: 2.90 %); assay type: functional
MIA PaCa-2 [24] = test: Induction of apoptosis in human MIA PaCa-2 cells assessed as viable cells at 5 uM incubated for 48 hrs by Annexin V-FITC/PI staining based flow cytometry (reference value: 92.1 %); assay type: functional; conditions: read-out: Activity
[25] = molecular target: T2, Programmed cell death 1 ligand 1 (Homo sapiens, UniProt Q9NZQ7); test: Peptide-mediated small molecule lysosome-targeting chimeric activity based PD-L1 degradation in human A549 cells incubated for 48 hrs by Western blot analysis; assay type: cell-based
[26] = molecular target: T2, Programmed cell death 1 ligand 1; test: Peptide-mediated small molecule lysosome-targeting chimeric activity based PD-L1 degradation in human A549 cells at 0.1 to 5 uM incubated for 48 hrs by Western blot analysis relative to control; assay type: cell-based; conditions: dose 0.1-5 µM
[27] = molecular target: T2, Programmed cell death 1 ligand 1; test: Peptide-mediated small molecule lysosome-targeting chimeric activity based PD-L1 degradation in Baf-A1-treated human A549 cells upto 5 uM incubated for 48 hrs by Western blot analysis; assay type: cell-based
[28] = molecular target: Tyrosine-protein kinase BTK (Homo sapiens) (UniProt Q06187); test: Peptide-mediated small molecule lysosome-targeting chimeric activity based BTK degradation in human K562 cells at 10 uM incubated for 48 hrs by Western blot analysis relative to control; assay type: cell-based
[29] = molecular target: T3, Nicotinamide phosphoribosyltransferase (Homo sapiens, UniProt P43490); test: Peptide-mediated small molecule lysosome-targeting chimeric activity based NAMPT degradation in human MOLT-4 cells incubated for 48 hrs by Western blot analysis; assay type: cell-based
[30] = molecular target: T3, Nicotinamide phosphoribosyltransferase; test: Peptide-mediated small molecule lysosome-targeting chimeric activity based NAMPT degradation in human A2780 cells incubated for 48 hrs by Western blot analysis; assay type: cell-based
[31] = molecular target: T3, Nicotinamide phosphoribosyltransferase; test: Peptide-mediated small molecule lysosome-targeting chimeric activity based NAMPT degradation in human MOLT-4 cells at 1 to 40 uM incubated for 48 hrs by Western blot analysis relative to control; assay type: cell-based; conditions: dose 1-40 µM
Target sequence in this assay (P43490 whole entry, looked up): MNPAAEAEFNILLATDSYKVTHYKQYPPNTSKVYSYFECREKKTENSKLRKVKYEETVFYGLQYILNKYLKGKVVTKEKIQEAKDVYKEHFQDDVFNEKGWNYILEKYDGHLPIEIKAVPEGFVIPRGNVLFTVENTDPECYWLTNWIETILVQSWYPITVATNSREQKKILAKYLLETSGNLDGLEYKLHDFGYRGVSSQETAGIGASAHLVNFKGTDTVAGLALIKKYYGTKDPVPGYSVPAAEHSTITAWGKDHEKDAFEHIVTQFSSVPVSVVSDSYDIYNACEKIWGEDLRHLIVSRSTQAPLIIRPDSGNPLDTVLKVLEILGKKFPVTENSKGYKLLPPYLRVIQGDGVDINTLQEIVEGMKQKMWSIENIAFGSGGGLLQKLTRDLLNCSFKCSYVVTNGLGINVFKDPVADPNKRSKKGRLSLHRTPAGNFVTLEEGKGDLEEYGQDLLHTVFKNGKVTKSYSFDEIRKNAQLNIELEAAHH

[32] = molecular target: T3, Nicotinamide phosphoribosyltransferase; test: Peptide-mediated small molecule lysosome-targeting chimeric activity based NAMPT degradation in human A2780 cells at 1 to 40 uM incubated for 48 hrs by Western blot analysis relative to control; assay type: cell-based; conditions: dose 1-40 µM
Target sequence in this assay (P43490 whole entry, looked up): as above

T2 sequence (Q9NZQ7 whole entry): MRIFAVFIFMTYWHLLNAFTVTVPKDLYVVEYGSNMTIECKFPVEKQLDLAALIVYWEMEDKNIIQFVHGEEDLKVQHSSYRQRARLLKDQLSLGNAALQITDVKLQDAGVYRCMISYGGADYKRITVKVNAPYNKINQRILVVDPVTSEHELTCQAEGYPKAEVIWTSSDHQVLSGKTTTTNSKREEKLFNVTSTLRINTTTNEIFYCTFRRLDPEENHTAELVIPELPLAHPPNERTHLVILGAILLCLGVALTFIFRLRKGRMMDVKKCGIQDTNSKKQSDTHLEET
T1 sequence (O43924 whole entry): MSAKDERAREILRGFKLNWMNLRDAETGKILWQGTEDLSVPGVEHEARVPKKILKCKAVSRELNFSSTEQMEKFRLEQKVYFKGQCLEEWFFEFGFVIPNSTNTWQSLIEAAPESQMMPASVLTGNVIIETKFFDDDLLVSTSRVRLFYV
Tyrosine-protein kinase BTK (Homo sapiens), sequence (Q06187 whole entry): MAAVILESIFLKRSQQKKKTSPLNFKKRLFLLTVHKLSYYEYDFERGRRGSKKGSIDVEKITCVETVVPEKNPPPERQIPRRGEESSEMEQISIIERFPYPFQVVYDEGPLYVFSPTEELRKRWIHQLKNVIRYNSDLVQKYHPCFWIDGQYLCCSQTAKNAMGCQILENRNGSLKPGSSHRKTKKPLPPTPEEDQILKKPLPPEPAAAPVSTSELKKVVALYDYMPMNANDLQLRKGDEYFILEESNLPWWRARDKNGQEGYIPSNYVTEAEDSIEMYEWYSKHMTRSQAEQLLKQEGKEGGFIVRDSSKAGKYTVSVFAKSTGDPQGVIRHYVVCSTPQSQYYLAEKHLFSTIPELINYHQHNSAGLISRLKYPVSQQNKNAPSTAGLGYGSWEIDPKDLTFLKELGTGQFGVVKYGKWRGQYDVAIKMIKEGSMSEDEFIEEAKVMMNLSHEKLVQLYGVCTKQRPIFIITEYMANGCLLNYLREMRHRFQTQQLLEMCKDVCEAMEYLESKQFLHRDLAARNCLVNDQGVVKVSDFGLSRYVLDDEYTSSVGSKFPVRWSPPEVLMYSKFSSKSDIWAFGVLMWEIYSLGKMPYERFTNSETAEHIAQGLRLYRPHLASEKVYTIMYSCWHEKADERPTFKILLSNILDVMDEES

Cc1ccc(-n2nc3c(=O)n(CCCC(=O)NCCCCCCCC(=O)NCC(=O)NCC(=O)NCC(=O)N[C@@H](CCCNC(=N)N)C(=O)N[C@@H](CCCNC(=N)N)C(=O)N[C@@H](CCCNC(=N)N)C(=O)N[C@@H](CCCNC(=N)N)C(=O)N[C@@H](CCCNC(=N)N)C(=O)N[C@@H](CCCNC(=N)N)C(=O)N[C@@H](CCCNC(=N)N)C(=O)N[C@@H](CCCNC(=N)N)C(=O)N[C@@H](CCCNC(=N)N)C(=O)N[C@@H](CC(N)=O)C(=O)N4CCC[C@H]4C(=O)NCC(=O)N[C@@H](Cc4ccc(O)cc4)C(N)=O)nc(C)c3c2C)cc1 ({X1-Aoc}-GGGRRRRRRRRRNPGY-NH2)
Activity (MIA PaCa-2 [1]): inactive
Activity [2]: Active
IC50 (MIA PaCa-2 [3]): 3.6 µM
Stability [4]: Stable
half-life [5]: 33.5 min
Activity (MIA PaCa-2 [6]): 13.3%
Activity (MIA PaCa-2 [7]): 3.48%
Emax [8]: 89%
Activity [9]: inactive
viability at 20 µM (MIA PaCa-2 [10]): 59.7%
Activity [11]: Active
Activity (MIA PaCa-2 [12]): 16.8%
Activity (MIA PaCa-2 [13]): 0.95%
Activity (MIA PaCa-2 [14]): inactive
DC50 [15]: 230 nM
Activity ([15]; dose 0.1-5 µM): Dose-Dependent Effect
Activity (MIA PaCa-2 [16]): 2.05%
Activity (MIA PaCa-2 [17]): 6.85%
viability at 10 µM (MIA PaCa-2 [18]): 73.3%
Activity [19]: Active
Activity (MIA PaCa-2 [20]): 10.7%
Activity (MIA PaCa-2 [21]): 3.9%
Activity [22]: Active
Activity (MIA PaCa-2 [23]): 19.7%
viability at 5 µM (MIA PaCa-2 [24]): 88.7%

COc1nc(OCc2cccc(-c3ccccc3)c2C)ccc1CNCCNC(=O)CCCc1cn(CC(=O)NCC(=O)NCC(=O)N[C@@H](CCCNC(=N)N)C(=O)N[C@@H](CCCNC(=N)N)C(=O)N[C@@H](CCCNC(=N)N)C(=O)N[C@@H](CCCNC(=N)N)C(=O)N[C@@H](CCCNC(=N)N)C(=O)N[C@@H](CCCNC(=N)N)C(=O)N[C@@H](CCCNC(=N)N)C(=O)N[C@@H](CCCNC(=N)N)C(=O)N[C@@H](CCCNC(=N)N)C(=O)N[C@@H](CC(N)=O)C(=O)N2CCC[C@H]2C(=O)NCC(=O)N[C@@H](Cc2ccc(O)cc2)C(N)=O)nn1 (X4-GGRRRRRRRRRNPGY-NH2)
DC50 [25]: 200 nM
Emax [26]: 92%
Activity [27]: inactive

N=C(N)NCCC[C@H](NC(=O)CNC(=O)CNC(=O)CNC(=O)CCOCCOCCN1CCN(C/C=C/C(=O)N2CCC[C@@H](n3nc(-c4ccc(Oc5ccccc5)cc4)c4c(N)ncnc43)C2)CC1)C(=O)N[C@@H](CCCNC(=N)N)C(=O)N[C@@H](CCCNC(=N)N)C(=O)N[C@@H](CCCNC(=N)N)C(=O)N[C@@H](CCCNC(=N)N)C(=O)N[C@@H](CCCNC(=N)N)C(=O)N[C@@H](CCCNC(=N)N)C(=O)N[C@@H](CCCNC(=N)N)C(=O)N[C@@H](CCCNC(=N)N)C(=O)N[C@@H](CC(N)=O)C(=O)N1CCC[C@H]1C(=O)NCC(=O)N[C@@H](Cc1ccc(O)cc1)C(N)=O (X5-GGGRRRRRRRRRNPGY-NH2)
Emax [28]: 63%

N=C(N)NCCC[C@H](NC(=O)CNC(=O)CNC(=O)CNC(=O)CCCCCCCN1CCN(S(=O)(=O)c2ccc(NC(=S)NCc3cccnc3)cc2)CC1)C(=O)N[C@@H](CCCNC(=N)N)C(=O)N[C@@H](CCCNC(=N)N)C(=O)N[C@@H](CCCNC(=N)N)C(=O)N[C@@H](CCCNC(=N)N)C(=O)N[C@@H](CCCNC(=N)N)C(=O)N[C@@H](CCCNC(=N)N)C(=O)N[C@@H](CCCNC(=N)N)C(=O)N[C@@H](CCCNC(=N)N)C(=O)N[C@@H](CC(N)=O)C(=O)N1CCC[C@H]1C(=O)NCC(=O)N[C@@H](Cc1ccc(O)cc1)C(N)=O (X2-[X3]GGGRRRRRRRRRNPGY-NH2)
DC50 [29]: 7 µM
Activity ([29]; dose 1-40 µM): Dose-Dependent Effect
DC50 [30]: 890 nM
Activity ([30]; dose 1-40 µM): Dose-Dependent Effect
Emax [31]: 90%
Emax [32]: 93%

Cc1ccc(-n2nc3c(=O)n(CCCC(=O)NCCCCCNc4cccc5c4C(=O)N(C4CCC(=O)NC4=O)C5=O)nc(C)c3c2C)cc1 (stereo unspecified)
IC50 (MIA PaCa-2 [3]): 9.3 µM
